# US20070275403A1, “Diagnostic methods for determining treatment” (priority 2006, published 2007)
# Where “and” joins values, the source holds several entries; their conditions need not be identical. Equal values may be shown once. Read-outs that look alike come from different tables or passages of the source.
# How the values were obtained:
# [1] = system: NSCLC; details: patients previously screened for EGFR expression; cited from earlier work
# [2] = system: NSCLC patients; experiment: Objective response (RECIST) of NSCLC patients in the gefitinib expanded access trial, by demographic and molecular subgroup; type: in vivo, human
# Description: (§1) Specimens. […] Chart review and study analyses were approved by the RUMC Institutional Review Board. The diagnosis of NSCLC in the archival material was obtained from pathology reports and confirmed by histologic evaluation before further analysis. Age, gender, smoking status and disease grade were established from chart review and patient report at registration. Smoking status was defined by lifetime consumption of <100 cigarettes. Response was assessed according to RECIST criteria of measurable and non-measurable lesions. […] Progressive disease was defined by relapse within 70 days of treatment.
# (§2) In Situ Hybridization. For copy number analyses by FISH, EGFR and centromere 7 (CEN7) probes were utilized to examine EGFR/cell, CEN7/cell and EGFR/CEN 7. A probe targeting α satellite repeat sequences near the centromere of chromosome 7 was used to indicate CEN 7 copy number (SpectrumGreen™ CEP® 7, Abbott Molecular Inc.). Specimen slides were prepared using either the Vysis Paraffin Pretreatment II or III kits (Abbott Molecular Inc.). The prepared specimen slides were hybridized with two-color FISH probe solutions (SpectrumOrange™ LSI® EGFR, Spectrum-Green CEP 7; Abbott Molecular Inc.) in a HYBrite™ automated co-denaturation oven (Abbott Molecular Inc.). The slides were placed on the oven surface and 10 μL probe solution was layered over the tissue section. A cover slip was applied over the probe solution and sealed to the slide with rubber cement. After denaturation at 73° C. for 5 minutes, the probe was hybridized at 37° C. for 16-18 hr. Following hybridization and removal of the rubber cement seal, the slides were placed in room-temperature 2×SSC (SSC=0.3 M NaCl, 15 mM sodium citrate), 0.3% Nonidet P40 (NP40) for 2-5 min to detach the cover slips. The slides were then immersed in 73° C. 2×SSC, 0.3% NP40 for 2 min to remove nonspecifically bound probe and then were allowed to dry in the dark. DAPI I antifade solution (Abbott Molecular Inc.) was applied to the specimen for visualization of the nuclei. […] Over-digested or under-digested specimens were reprocessed as described previously.
# (§3) Typically, 30-90 (median 80) cells were enumerated in each specimen. The mean number of signals per cell was calculated by totaling the number of signals from each cell for EGFR and CEN 7, and dividing by the number of cells counted to provide EGFR/cell and CEN 7/cell, respectively. EGFR/cell was divided by CEN 7/cell signals per cell to yield EGFR/CEN7. Other FISH parameters used in developing selection criteria are defined as follows. The EGFR % gain or CEN 7% gain was calculated as the percentage of cells with more than two EGFR or CEN 7 signals, respectively. […] When a slide was counted multiple times, counts were combined and used for recalculating the ratios and % gain.
# (§4) Optimal cutoff points for defining high ratios or high % gains were selected by first generating cutoffs from the mean minus 1.5 standard deviations to the mean plus 3.5 standard deviations, in 0.1 standard deviation increments, for each parameter (ratios and % gains), using the mean and standard deviations of the non responding patients. Each high and low ratios and % gains at each cutoff were compared with objective response and survival (greater than or less than 1 year survival) in contingency tables. Cutoffs with the lowest chi-square probabilities were selected for further analysis.
# (§5) Immunohistochemistry. Paraffin sections (5 μm, freshly cut) were deparaffinized and rehydrated by standard technique. A microwave antigen retrieval method was then carried out in citrate buffer. The tissue was stained using a Ventana ES Histo-stainer (Ventana Medical Systems, Tucson, Ariz.) using supplied diaminobenzidine and avidin-biotin conjugate immunoperoxidase chemistry.
# Immunostaining frequency of all tumor cells on each slide was estimated on a scale of 0 to 4 without knowledge of clinical patient data.
# [3] = system: NSCLC patients; experiment: Overall survival (Kaplan-Meier) of NSCLC patients in the gefitinib expanded access trial, by molecular subgroup; type: in vivo, human
# Description: as §1, §2, §3, §4
# Cutpoints were also assigned to indicate loss of chromosome 7, either monosomy or nullisomy.
# as §5
# [4] = system: NSCLC; details: phase II trials; cited from earlier work
# [5] = system: NSCLC; details: phase III trial; cited from earlier work
smiles,measurement,setting,value
"C#Cc1cccc(Nc2ncnc3cc(OCCOC)c(OCCOC)cc23)c1 [Erlotinib, erlotinib]",response rate,[1],12.3%
COc1cc2ncnc(Nc3ccc(F)c(Cl)c3)c2cc1OCCCN1CCOCC1 [gefitinib],"Objective Response (partial and complete, RECIST), number of patients (%)","[2]; 250 mg daily gefitinib, Total, 81 patients",12 (15) %
same,"Objective Response, number of patients (%)","[2]; 250 mg daily, Age <60 years",8 (13) %
same,"Objective Response, number of patients (%)","[2]; 250 mg daily, Age ≧60 years",4 (21) %
same,"Objective Response, number of patients (%)","[2]; 250 mg daily, Gender Female",7 (16) %
same,"Objective Response, number of patients (%)","[2]; 250 mg daily, Gender Male",5 (14) %
same,"Objective Response, number of patients (%)","[2]; 250 mg daily, Histopathological subtype Bronchoalveolar, adenocarcinoma",10 (18) %
same,"Objective Response, number of patients (%)","[2]; 250 mg daily, Histopathological subtype Other",2 (8) %
same,"Objective Response, number of patients (%)","[2]; 250 mg daily, Never smoked",7 (58) %
same,"Objective Response, number of patients (%)","[2]; 250 mg daily, Performance status 0 to 1",6 (13) %
same,"Objective Response, number of patients (%)","[2]; 250 mg daily, Performance status 2 to 4",6 (18) %
same,"Objective Response, number of patients (%)","[2]; 250 mg daily, Prior chemotherapy None",2 (14) %
same,"Objective Response, number of patients (%)","[2]; 250 mg daily, Prior chemotherapy One",7 (18) %
same,"Objective Response, number of patients (%)","[2]; 250 mg daily, Prior chemotherapy Two or more",3 (5) %
same,"Objective Response, number of patients (%)","[2]; 250 mg daily, Smoking status Yes",5 (7) %
same,Overall response,"[2]; 81 patients, 250 mg daily gefitinib",15%
same,"Objective Response, number of patients (%)",[2]; CEN 7/cell <3.6,7 (11) %
same,"Objective Response, number of patients (%)",[2]; CEN 7/cell <3.8,7 (11) %
same,"Objective Response, number of patients (%)",[2]; CEN 7/cell <3.8 and >2.0 (“normal”),7 (13) %
same,"Objective Response, number of patients (%)",[2]; CEN 7/cell <4,7 (11) %
same,"Objective Response, number of patients (%)",[2]; CEN 7/cell >3.8 or <2.0 (aneusomy),5 (19) %
same,"Objective Response, number of patients (%)",[2]; CEN 7/cell ≧3.6,5 (28) %
same,"Objective Response, number of patients (%)",[2]; CEN 7/cell ≧3.8,5 (31) %
same,"Objective Response, number of patients (%)",[2]; CEN 7/cell ≧4,5 (36) %
same,"Objective Response, number of patients (%)",[2]; EGFR % gain <75%,5 (9) %
same,"Objective Response, number of patients (%)",[2]; EGFR % gain ≧75%,7 (29) %
same,"Objective Response, number of patients (%)",[2]; EGFR IHC 0,3 (9) %
same,"Objective Response, number of patients (%)",[2]; EGFR IHC 1+ to 4+,9 (20) %
same,"Objective Response, number of patients (%)",[2]; EGFR/CEN 7 % gain <34%,3 (7) %
same,"Objective Response, number of patients (%)",[2]; EGFR/CEN 7 % gain ≧34%,9 (23) %
same,"Objective Response, number of patients (%)",[2]; EGFR/CEN 7 <1,1 (5) %
same,"Objective Response, number of patients (%)",[2]; EGFR/CEN 7 ≧1,11 (19) %
same,"Objective Response, number of patients (%)",[2]; EGFR/cell ≦6 (FISH),7 (10) %
same,"Objective Response, number of patients (%)",[2]; EGFR/cell ≧6 (FISH),5 (46) %
same,"Objective Response, number of patients (%)","[2]; PTEN IHC Absent, 73 patients analyzed",3 (7) %
same,"Objective Response, number of patients (%)","[2]; PTEN IHC Present (1+ to 4+), 73 patients analyzed",8 (30) %
same,patients with complete response,[2]; of 81 patients,2 patients
same,patients with partial response,[2]; of 81 patients,10 patients
same,patients with stable disease,[2]; of 81 patients,Thirty-six
same,"Objective Response, number of patients (%)","[2]; pAKT IHC Absent, 73 patients analyzed",4 (10) %
same,"Objective Response, number of patients (%)","[2]; pAKT IHC Present (1+ to 4+), 73 patients analyzed",7 (21) %
same,Median Survival,[3]; CEN 7 % ≧4 copies <52%,6.9 Months
same,Median Survival,"[3]; CEN7 % ≧4 copies ≧52%, pAKT+",39.4 months
same,Median Survival,"[3]; CEN7 % ≧4 copies, pAKT: Any negative",5.9 months
same,Median Survival,[3]; CEN 7/cell <3.6 (non-polysomy),6.0 Months
same,Median Survival,[3]; CEN 7/cell <3.6 and >2.0 (“normal”),5.8 Months
same,Median Survival,[3]; CEN 7/cell >3.6 or <2.0 (aneusomy),15.3 Months
same,Median Survival,[3]; CEN 7/cell ≧3.6 (polysomy),16.2 Months
same,Median Survival,"[3]; CEN 7/cell, pAKT: Any negative",5.9 months
same,Median Survival,"[3]; CEN 7 ≧3.6 (polysomy), pAKT+",24.5 months
same,Median Survival,[3]; EGFR % gain <75%,7.9 Months
same,Median Survival,[3]; EGFR % gain ≧75%,9.4 Months
same,Median Survival,[3]; EGFR % gain ≧75% cells and pAKT+,24.5 months
same,Median Survival,"[3]; EGFR % gain, pAKT: Any negative",6.6 months
same,Median Survival,"[3]; EGFR Expression, IHC Not detected",8.5 Months
same,Median Survival,"[3]; EGFR Expression, IHC Present",7.1 Months
same,Median Survival,[3]; EGFR/CEN 7 % gain <34%,6.0 Months
same,Median Survival,[3]; EGFR/CEN 7 % gain ≧3.4%,10.3 Months
same,Median Survival,"[3]; EGFR/CEN7 % gain, PTEN: Any negative",6.6 months
same,Median Survival,"[3]; PTEN Expression, IHC Not detected",5.9 Months
same,Median Survival,"[3]; PTEN Expression, IHC Present",9.3 Months
same,Median Survival,"[3]; pAKT Expression, IHC Not detected",5.8 Months
same,Median Survival,"[3]; pAKT Expression, IHC Present",10.5 Months
same,response rate,[4],18.4% and 11.8%
same,response rate,[5],8-13%
same,survival benefit,[5],no significant survival benefit
